In publication PMC7142633, “Impact of B-Ring Substitution and Acylation with Hydroxy Cinnamic Acids on the Inhibition of Porcine α-Amylase by Anthocyanin-3-Glycosides” (Foods, 2020):
Like-named read-outs stand apart in the source and are kept apart here. Marks after values point to notes of the source that are not given here.

Key:
[1] = target: T1, α-amylase from porcine pancreas (Sus scrofa, UniProt P00690); experiment: α-amylase enzyme activity assay, GalG2CNP conversion, UV/Vis detection of CNP at 405 nm; assay type: biochemical; details: for IC50: read-out: IC50 (Cheng−Prussoff, Equation (9)); for Kmapp / vmaxapp: Michaelis Menten fit
T1 construct: A saline suspension of α-amylase from porcine pancreas; purchased Sigma Aldrich (Steinheim, Germany) Lot #SLBN9170V (catalogue number not given); host or cells: porcine pancreas (tissue-derived)
T1 sequence (P00690 16-511): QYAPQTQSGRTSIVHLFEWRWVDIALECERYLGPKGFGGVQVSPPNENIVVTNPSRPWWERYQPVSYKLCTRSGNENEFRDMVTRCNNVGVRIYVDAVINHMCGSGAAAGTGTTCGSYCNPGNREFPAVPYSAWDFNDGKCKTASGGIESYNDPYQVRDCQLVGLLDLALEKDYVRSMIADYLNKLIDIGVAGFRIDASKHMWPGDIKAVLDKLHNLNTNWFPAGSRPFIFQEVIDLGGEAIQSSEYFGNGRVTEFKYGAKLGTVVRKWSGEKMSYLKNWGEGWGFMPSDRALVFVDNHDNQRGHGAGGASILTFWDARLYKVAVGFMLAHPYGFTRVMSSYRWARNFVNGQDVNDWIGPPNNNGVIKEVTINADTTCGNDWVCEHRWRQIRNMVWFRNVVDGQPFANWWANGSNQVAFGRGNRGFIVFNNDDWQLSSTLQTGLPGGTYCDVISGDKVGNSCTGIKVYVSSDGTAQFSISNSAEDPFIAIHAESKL
Procedure: The enzyme activity assay, […], was established by Homoki and co-workers and already used by the authors to evaluate the inhibitory strength of different phenolic structures. To enable the evaluation of the result obtained in the present study compared to the non-anthocyanin phenolics investigated previously, the assay conditions were identical. In short, to 12 different GalG2CNP concentrations ([S] = 0−2000 µM) in MES^+ buffer, inhibitor [I] and 50 µL enzyme solution (c = 1.51 units/~100 pM, on the basis of supplier information) were mixed in a microtiter plate (Greiner BioOne, Frickenhausen, Germany; transparent, F-bottom). For blanks, the enzyme solution was substituted with MES^+ buffer. The final volume per well was 250 µL. To quantify the reaction product, a linear calibration with eight different CNP concentrations in the range of 0−35 µM was performed for each plate. Dilutions of the anthocyanin stock solutions (0.1% HCl) were equilibrated at pH 6.1 for one hour. Final inhibitor concentrations were limited due to its strong absorption at 405 nm to 12.5, 25, and 50 µM. For each anthocyanin structure, the assay was conducted on two to three different days with freshly prepared stocks of substrate, enzyme, and inhibitor.
In addition to the Michaelis Menten constant (Km) and the maximal conversion rate (vmax) values (Table S1), inhibition constants (Kic, Kiu) were calculated by fitting the data by two approaches: (i) According to the mixed inhibition equation (Equation (4)) or competitive inhibition equation (Equation (5)), applying an optimal global fit containing data from all inhibitor concentrations including the control ([I] = 0 µM); and (ii) by an independent fit according to the Michaelis Menten equation (Equation (6)), providing the apparent values Km^app and Vmax^app (Table S2) for each inhibitor concentration, which were then used to calculate the inhibition constants (Equations (7) and (8)). (4) v0= vmax/Km/[S] · (1+[I]/Kic)+(1+[I]/Kiu), (5) v0=vmax/Km/[S] · ( 1+[I]/Kic)+1, (6) v0=vmax · [S]/Km+[S], (7) Kic=vmax^app/Km^app · [I]/vmax/Km−vmax^app/Km^app, (8) Kiu=vmax^app · [I]/vmax− vmax^app.
The IC50 values of the different anthocyanins were derived from the inhibition constants for different substrate concentrations by the Cheng−Prusoff equation (Equation (9)). (9) IC50=(Km+[S])/Km/Kic+[S]/Kiu.
• KM: Michaelis Menten constant (µM) • vmax: Maximal conversion rate of the uninhibited reaction (µM/min) • v0: Observed conversion rate at given substrate and inhibitor concentration (µM/min) • [S]: Substrate concentration • [I]: Inhibitor concentration • Kic: Inhibitor constant, reflecting the competitive inhibition in the equation (µM) • Kiu: Inhibitor constant, reflecting the uncompetitive inhibition in the equation (µM) • vmax^app: Calculated maximal conversion rate, when the Michaelis Menten equation is used on an inhibited curve (µM/min) • Km^app: Calculated Michaelis Menten constant, when the Michaelis Menten equation is used on an inhibited curve (µM) • IC50: Half maximal inhibitory concentration (inhibitor concentration needed to achieve 50% inhibition; it is dependent on the substrate concentration) (µM)
For data analyses and calculations, Origin 2018b (OriginLab, software extension Enzyme Kinetics) was used. The Levenberg−Marquardt algorithm procedure was chosen for iteration. All assays were performed in two independent replicates at different dates. Values are expressed in arithmetic means ± average deviation (AD). The statistical significance and differences between groups were analyzed by one-way analysis of variance (ANOVA), followed by Tukey’s test. Differences were considered significant when p < 0.05. Data were processed using Microsoft Excel® (2010).

[2] = target: T1, α-amylase from porcine pancreas; experiment: Isothermal titration calorimetry, single injection, GalG2CNP conversion; assay type: biochemical; details: 100 µM inhibitor, 0.95 mM substrate, 37 °C
Procedure: To evaluate the inhibitory strength of 100 µM anthocyanin-3-glucosides and black carrot anthocyanins, GalG2CNP conversion to CNP was monitored by the released heat. According to the previous study, ITC measurements were carried out in a single injection experiment set-up on a MICROCALTM PEAQ-ITC calorimeter (S/N MAL1188053, Malvern Panalytical Almelo, Netherlands). Following an equilibration time of 10 min, 1 µL α-amylase (1 µM in 50 mM MES^+ buffer) was added to 0.95 mM of the substrate with or without 100 µM of the phenolic inhibitor in the cell (Vcell = 0.207 mL). The temperature was maintained at 37 °C and the sample was stirred at 750 rpm throughout. The feedback/gain mode was set to high. The resulting heat profile was transformed and the conversion rate was plotted against the substrate concentration [S] by an origin routine template provided by Malvern® for Origin version 7.

- IC50 ([1]; (i) Kic and Kiu by global fit, [S] 10 µM): 112 ± 40 µM
- IC50 ([1]; (i) Kic and Kiu by global fit, [S] 100 µM): 134 ± 46 µM
- IC50 ([1]; (i) Kic and Kiu by global fit, [S] 10^3 µM): 209 ± 65 µM
- IC50 ([1]; (i) Kic and Kiu by global fit, [S] 10^6 µM): 258 ± 78 µM
- Kic/Kiu ([1]; (i) global fit, Equation (4)): 0.42 ± 0.23 ^a
- Ki ([1]; (i) global fit, mixed inhibition Equation (4), read-out: Kic): 109 ± 39 µM
- Ki ([1]; (i) global fit, mixed inhibition Equation (4), read-out: Kiu): 258 ± 78 µM
- IC50 ([1]; (ii) Kic and Kiu by independent fit, [S] 10 µM): 121 ± 42 µM
- IC50 ([1]; (ii) Kic and Kiu by independent fit, [S] 100 µM): 142 ± 49 µM
- IC50 ([1]; (ii) Kic and Kiu by independent fit, [S] 10^3 µM): 212 ± 69 µM
- IC50 ([1]; (ii) Kic and Kiu by independent fit, [S] 10^6 µM): 254 ± 82 µM
- Ki ([1]; (ii) independent Michaelis Menten fit (Equation (6)), calculation by Equation (7), read-out: Kic): 118 ± 42 µM
- Ki ([1]; (ii) independent Michaelis Menten fit (Equation (6)), calculation by Equation (8), read-out: Kiu): 254 ± 82 µM
- Kic/Kiu ([1]; (ii) independent fit, Equations (7) and (8)): 0.43 ± 0.04 **^a
- Kmapp ([1]; inhibitor c 25 µM): 242 ± 8 µM
- vmaxapp ([1]; inhibitor c 25 µM): 0,74 ± 0,14 µM/min
- Kmapp ([1]; inhibitor c 50 µM): 256 ± 7 µM
- vmaxapp ([1]; inhibitor c 50 µM): 0,65 ± 0,05 µM/min
- Kmapp ([1]; inhibitor c 12,5 µM): 211 ± 15 µM
- vmaxapp ([1]; inhibitor c 12,5 µM): 0,77 ± 0,12 µM/min
- Ki ([1]; from apparent values, inhibitor c 25 µM, read-out: Kic): 107 ± 15 µM
- Ki ([1]; from apparent values, inhibitor c 25 µM, read-out: Kiu): 250 µM
- Ki ([1]; from apparent values, inhibitor c 50 µM, read-out: Kic): 112 ± 45 µM
- Ki ([1]; from apparent values, inhibitor c 50 µM, read-out: Kiu): 262 ± 92 µM
- Ki ([1]; from apparent values, inhibitor c 12,5 µM, read-out: Kic): 180 µM
- Ki ([1]; from apparent values, inhibitor c 12,5 µM, read-out: Kiu): 360 µM
- Ki ([1]; mean over inhibitor c 12,5, 25, 50 µM (Supplementary 2), read-out: Kic mean ± SD): 133 ± 40 µM
- Ki ([1]; mean over inhibitor c 12,5, 25, 50 µM (Supplementary 2), read-out: Kiu mean ± SD): 290 ± 61 µM
Compound: COc1cc(-c2[o+]c3cc(O)cc(O)c3cc2O[C@@H]2O[C@H](CO)[C@@H](O)[C@H](O)[C@H]2O)ccc1O [Peo-glc, peonidin-3-glucoside]
- inhibitory strength by ITC (thermogram, Michaelis Menten plot) [2]: Mlv-3-glc > Cyd-3-glc > Dpd-3-glc~Peo-3-glc
